Calls of active or inactive are those of the source.
Tests used:
cells = assay type: functional
[1] = molecular target: T1, V-type proton ATPase subunit c' (Saccharomyces cerevisiae S288c, UniProt P32842); assay: Dose Response with BCECF Assay for V-ATPase inhibitors that increase vacuolar pH, Powder Set 1.; assay type: functional; details: read-out: EC50_MICROM
[2] = molecular target: T1, V-type proton ATPase subunit c'; assay: Dose Response of Small Molecules that Regulate V-ATPase Proton Transport in Yeast using pHLuorin, Cherry Pick 2.; assay type: functional; details: read-out: EC50_MICROM
DNA topoisomerase = DNA topoisomerase (Yersinia pestis, UniProt A0A2S9PM60); assay: Y. pestis Topo-I inhibitors, cleavage product readout, dose response, biochemical, cherry-pick (AID 588525)
[3] = molecular target: T2, Nuclear receptor subfamily 0 group B member 1 (Homo sapiens, UniProt P51843); assay: Luminescence-based cell-based high throughput dose response assay for inhibitors of the orphan nuclear receptor subfamily 0, group B, member 1 (DAX1; NR0B1). [Related pubchem assays (depositor defined):AID504766, AID504790]; assay type: functional
T2 sequence (P51843 whole entry): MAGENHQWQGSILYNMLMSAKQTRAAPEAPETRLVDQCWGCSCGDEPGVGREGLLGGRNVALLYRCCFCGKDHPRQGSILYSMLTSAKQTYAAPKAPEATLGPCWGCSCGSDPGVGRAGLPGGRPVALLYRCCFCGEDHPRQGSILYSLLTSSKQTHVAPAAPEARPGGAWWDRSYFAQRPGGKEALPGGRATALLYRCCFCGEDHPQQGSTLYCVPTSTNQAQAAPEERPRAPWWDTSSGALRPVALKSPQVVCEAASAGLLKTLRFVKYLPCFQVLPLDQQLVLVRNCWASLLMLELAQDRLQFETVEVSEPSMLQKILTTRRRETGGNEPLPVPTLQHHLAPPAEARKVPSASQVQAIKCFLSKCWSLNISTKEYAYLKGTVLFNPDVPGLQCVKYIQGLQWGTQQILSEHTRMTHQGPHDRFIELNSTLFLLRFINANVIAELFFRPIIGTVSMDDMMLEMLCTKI

H4 = assay: Luminescence Cell-Based Dose Response HTS to Identify Activators of 5'UTR Stem-Loop Driven Prion Protein mRNA Translation in H4 Neuroglioblastoma Cells. [Related pubchem assays: 1829 (Project Summary), 1814 (Primary HTS)]; assay type: functional; details: Homo sapiens
[4] = Luminescence Cell-Based Dose Confirmation HTS to Identify Activators of 5'UTR Stem-Loop Driven Alpha-Synuclein mRNA Translation in H4 Neuroglioblastoma Cells. [Related pubchem assays: 1829 (Project Summary), 1814 (Primary HTS)]; assay type: functional
[5] = Luminescence Cell-Based Dose Confirmation to Identify Activators of 5'UTR Stem-Loop Driven Alpha-Synuclein mRNA Translation in H4 Neuroglioblastoma Cells. [Related pubchem assays: 1829 (Project Summary), 1814 (Primary HTS)]; assay type: functional
HEK293 = assay: cells; assay type: functional, cell-based; details: Homo sapiens
[6] = Luminescence Cell-Based Dose Response to Identify Activators of 5'UTR Stem-Loop Driven Prion Protein mRNA Translation in H4-C Neuroglioblastoma Cells. [Related pubchem assays: 1829 (Project Summary), 1814 (Primary HTS)]; assay type: functional
[7] = Luminescence Cell-Based Dose Response to Identify Activators of Luciferase Translation or Activity in H4-C Neuroglioblastoma Cells. [Related pubchem assays: 1829 (Project Summary), 1814 (Primary HTS)]; assay type: functional
[8] = HepG2 cell cytotoxicity, dose response, cytotoxicity control, ATP luminescence, cherry-pick, activator set 2 (AID 1053143); assay type: functional, cell-based
[9] = Luminescence Cell-Based Dose Response HTS to Identify Activators of Luciferase Translation or Activity in H4 […] Cells. [Related pubchem assays: 1829 (Project Summary), 1814 (Primary HTS)]; assay type: functional
CHO = assay: cytotoxicity in TLR9-MyD88 CHO cells, dose response, cytotoxicity control for TLR9-MyD88 binding inhibitor project, cell-based, luminescence (AID 588339); assay type: functional, hamster; details: Cricetulus griseus;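 note: CHO cells stably coexpressing TLR9 and MyD88 fusions from primary screen; compound exposure lasted 48 hours before viability readout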
Beta Lactamase = Beta Lactamase (Pseudomonas aeruginosa, UniProt Q932Y6); assay: beta-lactamase reporter inhibitor potency, dose response, artefact control for TLR9-MyD88 binding inhibitor project, BLA reporter cells, FRET fluorescence (AID 588341); assay type: cell-based;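 note: cell based assay in CHO-K1 cells stably expressing beta-lactamase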
[10] = molecular target: T3, Sentrin-specific protease 8 (Homo sapiens, UniProt Q96LD8); assay type: functional
T3 sequence (Q96LD8 whole entry): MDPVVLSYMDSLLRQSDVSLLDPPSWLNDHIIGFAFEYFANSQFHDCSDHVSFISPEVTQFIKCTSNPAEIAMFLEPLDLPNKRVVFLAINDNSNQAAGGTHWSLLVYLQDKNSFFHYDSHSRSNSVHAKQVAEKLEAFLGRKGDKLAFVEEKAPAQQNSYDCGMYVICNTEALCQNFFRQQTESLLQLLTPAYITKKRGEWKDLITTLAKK

[11] = molecular target: Tyrosyl-DNA phosphodiesterase 2 (Homo sapiens, UniProt O95551); assay: human TDP2 enzyme inhibitors, dose response, biochemical, epi absorbance, IC50 (AID 743297)
[12] = molecular target: T4, Histone-lysine N-methyltransferase NSD2 (Homo sapiens, UniProt O96028); assay type: biochemical
T4 sequence (O96028 whole entry): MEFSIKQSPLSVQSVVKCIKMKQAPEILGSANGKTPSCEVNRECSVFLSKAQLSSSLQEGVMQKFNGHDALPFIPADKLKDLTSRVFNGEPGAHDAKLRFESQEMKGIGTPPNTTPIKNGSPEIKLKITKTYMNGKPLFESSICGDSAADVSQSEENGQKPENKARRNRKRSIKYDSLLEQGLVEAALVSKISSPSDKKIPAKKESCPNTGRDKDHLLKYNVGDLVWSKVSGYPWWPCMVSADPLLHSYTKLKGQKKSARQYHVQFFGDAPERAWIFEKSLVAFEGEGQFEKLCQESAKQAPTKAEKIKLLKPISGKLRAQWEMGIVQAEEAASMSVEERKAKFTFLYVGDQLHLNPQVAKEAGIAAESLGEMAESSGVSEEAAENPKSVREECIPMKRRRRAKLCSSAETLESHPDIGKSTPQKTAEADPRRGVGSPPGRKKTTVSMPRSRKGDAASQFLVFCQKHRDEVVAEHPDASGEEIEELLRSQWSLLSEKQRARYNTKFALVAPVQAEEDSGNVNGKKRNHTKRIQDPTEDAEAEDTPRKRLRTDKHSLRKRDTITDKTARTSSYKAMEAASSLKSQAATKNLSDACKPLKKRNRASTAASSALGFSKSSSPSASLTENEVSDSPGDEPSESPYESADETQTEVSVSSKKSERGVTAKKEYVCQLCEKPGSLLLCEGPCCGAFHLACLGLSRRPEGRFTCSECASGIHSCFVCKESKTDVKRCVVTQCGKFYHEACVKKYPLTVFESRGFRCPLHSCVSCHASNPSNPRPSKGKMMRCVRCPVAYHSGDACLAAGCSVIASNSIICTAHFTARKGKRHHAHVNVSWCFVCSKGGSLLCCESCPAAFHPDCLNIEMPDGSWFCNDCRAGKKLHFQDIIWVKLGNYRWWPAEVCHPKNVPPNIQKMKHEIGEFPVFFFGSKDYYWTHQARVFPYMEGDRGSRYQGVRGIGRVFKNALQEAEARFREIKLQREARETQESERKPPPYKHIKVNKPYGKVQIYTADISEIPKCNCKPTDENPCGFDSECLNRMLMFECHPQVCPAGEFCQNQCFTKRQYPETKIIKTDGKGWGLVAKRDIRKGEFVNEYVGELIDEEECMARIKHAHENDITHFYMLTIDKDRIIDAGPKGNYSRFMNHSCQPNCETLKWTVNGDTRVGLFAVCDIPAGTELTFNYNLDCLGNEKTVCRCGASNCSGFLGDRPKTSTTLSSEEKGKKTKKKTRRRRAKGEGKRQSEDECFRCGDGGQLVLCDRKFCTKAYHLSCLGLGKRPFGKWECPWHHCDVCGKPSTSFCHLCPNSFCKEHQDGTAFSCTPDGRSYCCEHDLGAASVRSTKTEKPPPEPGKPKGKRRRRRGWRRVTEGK

[13] = molecular target: T5, Apoptotic protease-activating factor 1 (Homo sapiens, UniProt O14727); assay type: functional
T5 sequence (O14727 whole entry): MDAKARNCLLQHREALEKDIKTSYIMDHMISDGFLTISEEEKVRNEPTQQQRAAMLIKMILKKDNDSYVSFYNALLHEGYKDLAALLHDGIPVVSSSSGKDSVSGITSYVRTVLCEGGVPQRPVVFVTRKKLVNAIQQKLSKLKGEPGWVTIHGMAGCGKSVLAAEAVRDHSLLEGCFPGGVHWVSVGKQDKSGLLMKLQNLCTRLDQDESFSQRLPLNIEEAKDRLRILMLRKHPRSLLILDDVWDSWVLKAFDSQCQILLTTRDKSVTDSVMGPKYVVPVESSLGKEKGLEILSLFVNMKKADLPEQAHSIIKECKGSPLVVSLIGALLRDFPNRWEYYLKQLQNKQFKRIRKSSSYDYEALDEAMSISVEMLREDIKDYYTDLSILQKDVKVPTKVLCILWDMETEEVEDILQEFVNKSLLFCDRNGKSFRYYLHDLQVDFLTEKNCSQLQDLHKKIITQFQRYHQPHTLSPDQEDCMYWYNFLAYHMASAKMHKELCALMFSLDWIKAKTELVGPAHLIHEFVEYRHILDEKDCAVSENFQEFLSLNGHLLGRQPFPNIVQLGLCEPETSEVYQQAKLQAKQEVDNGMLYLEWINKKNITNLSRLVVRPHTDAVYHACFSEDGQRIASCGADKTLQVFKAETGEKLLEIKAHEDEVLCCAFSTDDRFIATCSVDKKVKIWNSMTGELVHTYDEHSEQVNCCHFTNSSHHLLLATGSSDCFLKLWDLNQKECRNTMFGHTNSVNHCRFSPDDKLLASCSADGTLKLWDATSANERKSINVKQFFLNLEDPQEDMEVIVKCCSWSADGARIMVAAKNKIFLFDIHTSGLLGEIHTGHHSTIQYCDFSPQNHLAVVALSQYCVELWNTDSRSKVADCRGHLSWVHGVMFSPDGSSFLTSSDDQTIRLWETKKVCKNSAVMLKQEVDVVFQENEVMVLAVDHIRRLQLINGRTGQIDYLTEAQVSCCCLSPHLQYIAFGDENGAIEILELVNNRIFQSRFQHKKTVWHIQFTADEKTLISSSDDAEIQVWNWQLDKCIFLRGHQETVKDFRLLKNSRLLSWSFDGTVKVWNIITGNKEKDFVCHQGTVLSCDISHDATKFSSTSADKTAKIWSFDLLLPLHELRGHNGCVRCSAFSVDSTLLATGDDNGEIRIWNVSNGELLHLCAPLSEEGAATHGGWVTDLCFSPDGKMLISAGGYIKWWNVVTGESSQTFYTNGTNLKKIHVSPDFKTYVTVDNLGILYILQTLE

[14] = molecular target: T3, Sentrin-specific protease 8; assay type: functional; remark: listed apart in the source
[15] = inhibitors of cytokine-induced nitrite release, dose response, cell-based, Griess absorbance, INS-1E, dry powder, set 3 (AID 488870); assay type: functional; details: Rattus norvegicus
INS1 = assay: inhibitors of cytokine-induced nitrite release, dose response, cell-based, Griess absorbance, INS-1E, dry powder, set 2 (AID 488868); assay type: functional; details: Rattus norvegicus
[16] = molecular target: DNA dC->dU-editing enzyme APOBEC-3A (Homo sapiens, UniProt P31941); assay: SAR analysis of small molecule inhibitors of APOBEC3A DNA Deaminase via a fluorescence-based single-stranded DNA deaminase assay.; assay type: functional; details: read-out: IC50_Mean
[17] = molecular target: DNA dC->dU-editing enzyme APOBEC-3G (Homo sapiens, UniProt Q9HC16); assay: APOBEC3G deaminase inhibitors, SAR follow-up, biochemical, fluorescence, single-stranded DNA substrate (AID 602136); assay type: functional; details: read-out: IC50_Mean
Beta-galactosidase = Beta-galactosidase (Escherichia coli, UniProt Q8VNN2); assay: PubChem AID 485352; assay type: functional
[18] = molecular target: T6, Type-1 angiotensin II receptor (Homo sapiens, UniProt P30556); assay: AT1 receptor antagonists, dose response, selectivity assay for APJ receptor antagonist project, cell-based, uHTS hits (AID 463214); assay type: functional;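 note: antagonist potency against angiotensin II stimulated AT1 response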
T6 sequence (P30556 whole entry): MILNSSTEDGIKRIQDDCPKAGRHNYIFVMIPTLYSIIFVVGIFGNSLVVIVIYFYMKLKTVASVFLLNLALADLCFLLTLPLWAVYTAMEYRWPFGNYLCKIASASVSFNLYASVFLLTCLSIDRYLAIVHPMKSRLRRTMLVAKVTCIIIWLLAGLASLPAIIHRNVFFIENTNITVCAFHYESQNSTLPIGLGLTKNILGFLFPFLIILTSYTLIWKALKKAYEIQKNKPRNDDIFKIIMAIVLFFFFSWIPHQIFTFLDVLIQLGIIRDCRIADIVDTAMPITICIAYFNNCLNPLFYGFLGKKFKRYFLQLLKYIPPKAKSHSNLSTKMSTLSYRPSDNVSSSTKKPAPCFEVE

T1 sequence (P32842 whole entry): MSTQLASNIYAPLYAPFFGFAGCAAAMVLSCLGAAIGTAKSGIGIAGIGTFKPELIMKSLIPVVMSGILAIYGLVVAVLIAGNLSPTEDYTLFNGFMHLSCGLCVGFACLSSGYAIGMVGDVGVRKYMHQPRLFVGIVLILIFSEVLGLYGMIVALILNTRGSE
Beta Lactamase, sequence (Q932Y6 whole entry): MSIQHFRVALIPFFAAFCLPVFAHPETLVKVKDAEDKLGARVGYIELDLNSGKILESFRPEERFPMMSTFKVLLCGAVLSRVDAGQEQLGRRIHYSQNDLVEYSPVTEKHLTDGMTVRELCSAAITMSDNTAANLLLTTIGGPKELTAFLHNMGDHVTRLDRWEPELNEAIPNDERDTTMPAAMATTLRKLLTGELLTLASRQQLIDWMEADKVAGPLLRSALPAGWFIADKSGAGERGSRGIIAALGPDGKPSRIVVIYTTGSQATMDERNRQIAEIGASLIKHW
Tyrosyl-DNA phosphodiesterase 2, sequence (O95551 whole entry): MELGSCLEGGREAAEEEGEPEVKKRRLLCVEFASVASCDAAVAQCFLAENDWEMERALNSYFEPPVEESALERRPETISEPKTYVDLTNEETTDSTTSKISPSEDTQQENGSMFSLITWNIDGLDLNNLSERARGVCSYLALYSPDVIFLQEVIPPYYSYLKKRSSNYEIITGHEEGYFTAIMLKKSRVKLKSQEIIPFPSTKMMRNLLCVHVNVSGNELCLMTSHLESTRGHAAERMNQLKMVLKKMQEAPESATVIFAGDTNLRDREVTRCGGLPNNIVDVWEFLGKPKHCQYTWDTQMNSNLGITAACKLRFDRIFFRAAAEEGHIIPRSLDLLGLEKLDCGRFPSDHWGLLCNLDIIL
DNA dC->dU-editing enzyme APOBEC-3G, sequence (Q9HC16 whole entry): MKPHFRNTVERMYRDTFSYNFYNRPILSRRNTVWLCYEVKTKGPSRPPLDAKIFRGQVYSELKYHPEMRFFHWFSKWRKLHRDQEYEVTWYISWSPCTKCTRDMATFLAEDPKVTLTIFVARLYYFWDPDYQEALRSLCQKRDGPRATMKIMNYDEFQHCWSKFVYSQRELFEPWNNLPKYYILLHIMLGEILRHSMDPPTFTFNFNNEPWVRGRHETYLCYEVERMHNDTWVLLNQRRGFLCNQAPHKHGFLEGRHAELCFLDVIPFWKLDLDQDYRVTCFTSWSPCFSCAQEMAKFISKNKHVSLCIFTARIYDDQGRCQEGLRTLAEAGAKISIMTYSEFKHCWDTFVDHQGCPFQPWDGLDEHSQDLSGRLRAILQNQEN
DNA dC->dU-editing enzyme APOBEC-3A, sequence (P31941 whole entry): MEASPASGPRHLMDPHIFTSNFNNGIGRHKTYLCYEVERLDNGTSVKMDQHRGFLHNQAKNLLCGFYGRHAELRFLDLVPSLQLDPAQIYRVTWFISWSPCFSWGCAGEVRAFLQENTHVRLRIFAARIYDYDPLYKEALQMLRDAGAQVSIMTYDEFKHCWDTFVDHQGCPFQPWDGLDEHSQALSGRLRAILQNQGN
DNA topoisomerase, sequence (A0A2S9PM60 whole entry): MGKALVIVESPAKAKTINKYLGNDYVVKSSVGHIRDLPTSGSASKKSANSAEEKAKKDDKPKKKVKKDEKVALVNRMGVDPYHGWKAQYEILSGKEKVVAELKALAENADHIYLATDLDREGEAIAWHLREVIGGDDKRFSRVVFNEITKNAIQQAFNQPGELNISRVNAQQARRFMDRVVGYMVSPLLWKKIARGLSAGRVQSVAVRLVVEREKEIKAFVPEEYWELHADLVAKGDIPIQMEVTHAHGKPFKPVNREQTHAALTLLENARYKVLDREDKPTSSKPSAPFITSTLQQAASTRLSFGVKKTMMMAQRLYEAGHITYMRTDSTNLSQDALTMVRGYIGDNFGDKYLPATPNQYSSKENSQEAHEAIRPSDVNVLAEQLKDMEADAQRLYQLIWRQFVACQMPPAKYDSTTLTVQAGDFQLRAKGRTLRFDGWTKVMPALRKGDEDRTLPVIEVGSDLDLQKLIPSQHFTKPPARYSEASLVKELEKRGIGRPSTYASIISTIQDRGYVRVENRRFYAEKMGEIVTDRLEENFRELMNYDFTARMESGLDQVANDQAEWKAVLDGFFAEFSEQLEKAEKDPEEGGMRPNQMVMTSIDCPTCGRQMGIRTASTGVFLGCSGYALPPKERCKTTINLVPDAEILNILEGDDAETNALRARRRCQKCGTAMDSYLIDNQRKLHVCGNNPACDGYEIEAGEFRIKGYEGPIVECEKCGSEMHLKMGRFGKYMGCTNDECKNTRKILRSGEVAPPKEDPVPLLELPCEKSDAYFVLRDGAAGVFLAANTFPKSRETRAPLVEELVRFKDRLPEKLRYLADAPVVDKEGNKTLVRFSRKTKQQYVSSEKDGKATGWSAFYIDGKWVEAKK
Beta-galactosidase, sequence (Q8VNN2 whole entry): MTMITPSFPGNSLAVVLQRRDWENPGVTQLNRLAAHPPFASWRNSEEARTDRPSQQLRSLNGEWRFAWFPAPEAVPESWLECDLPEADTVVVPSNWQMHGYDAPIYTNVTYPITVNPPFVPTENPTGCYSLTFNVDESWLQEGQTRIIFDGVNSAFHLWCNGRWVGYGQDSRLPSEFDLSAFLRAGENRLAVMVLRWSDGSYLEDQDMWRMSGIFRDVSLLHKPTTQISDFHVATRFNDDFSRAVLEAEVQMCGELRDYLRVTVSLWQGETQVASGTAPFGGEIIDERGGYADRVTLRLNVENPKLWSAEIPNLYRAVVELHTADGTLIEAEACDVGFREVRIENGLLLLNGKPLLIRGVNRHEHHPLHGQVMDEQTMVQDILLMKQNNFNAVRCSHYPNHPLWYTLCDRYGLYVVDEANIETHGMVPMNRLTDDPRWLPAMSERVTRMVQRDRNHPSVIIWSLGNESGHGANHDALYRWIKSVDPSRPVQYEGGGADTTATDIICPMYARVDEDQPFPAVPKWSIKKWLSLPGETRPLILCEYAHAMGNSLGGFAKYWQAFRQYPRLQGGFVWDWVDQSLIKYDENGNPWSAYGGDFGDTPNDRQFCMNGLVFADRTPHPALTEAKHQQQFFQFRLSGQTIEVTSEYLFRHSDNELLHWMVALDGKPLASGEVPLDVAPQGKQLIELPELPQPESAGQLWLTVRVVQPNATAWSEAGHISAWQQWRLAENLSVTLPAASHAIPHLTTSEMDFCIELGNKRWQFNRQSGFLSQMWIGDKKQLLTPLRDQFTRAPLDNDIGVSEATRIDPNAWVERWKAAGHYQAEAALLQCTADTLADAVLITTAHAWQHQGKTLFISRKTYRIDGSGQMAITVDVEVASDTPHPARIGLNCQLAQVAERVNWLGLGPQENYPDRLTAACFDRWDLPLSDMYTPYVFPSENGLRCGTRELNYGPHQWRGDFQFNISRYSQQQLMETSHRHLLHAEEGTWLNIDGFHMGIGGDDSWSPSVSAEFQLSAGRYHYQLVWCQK

For `O=C(c1ccc([N+](=O)[O-])o1)N1CCN(c2nc3ccc(F)cc3s2)CC1`, the IC50 (cells) was < 0.1 µM (active), the EC50 [1] was 0.384 µM (active) and the EC50 [2] was 3.64 µM (active).
In the case of `Cc1ccc(-n2c(C)cc(C(=O)Cn3nc(C(=O)O)c4ccccc4c3=O)c2C)cc1`, the AC50 (DNA topoisomerase) was 5.3 µM (active).
With `O=C(Nc1ncccc1O)c1ccc2c(c1)OCCO2` the IC50 [3] was > 67.5 µM (inactive), the EC50 (H4) was 0.139 µM (active) and the EC50 [4] was 0.185 µM (active). The EC50 [5] was 0.329 µM (active), the IC50 (HEK293) was 1.59 µM (active) and the EC50 [6] was 7.24 µM (active). The EC50 [7] was > 12 µM (not active), the AC50 [8] was 12 µM (active) and the EC50 [9] was 0.155 µM (active).
With `O=C(C1=NN(c2ccccc2)C2C(=O)N(c3ccc(Cl)cc3)C(=O)C12)c1ccccc1` (stereo unspecified) the IC50 (CHO) was > 49.7 µM (inactive) and the IC50 (Beta Lactamase) was 11.8 µM (inactive).
In the case of `C[n+]1cccc2c(Br)ccc([O-])c21`, the IC50 [10] was 1.64 µM (active), the IC50 [11] was > 42.8 µM (inactive) and the AC50 [12] was 7.45 µM (active). For the same molecule, the IC50 [13] was 92 µM (active) and the IC50 [14] was 4.18 µM (active).
For `COc1ccc(S(=O)(=O)N(C)C[C@@H]2Oc3c(NC(=O)NC4CCCCC4)cccc3C(=O)N([C@@H](C)CO)C[C@H]2C)cc1`, the AC50 [15] was 64.5 µM (active) and the AC50 (INS1) was 44.5 µM (active).
For `Cc1cc(C(=O)CSc2nnc3scc(-c4ccccc4)n23)c(C)n1-c1cc(F)ccc1F`, the IC50 [16] was > 99 µM (inactive) and the IC50 [17] was > 99 µM (inactive).
With `CN1/C(=c2/s/c(=C3/C(=O)N(c4ccccc4)N=C3Nc3ccccc3)n(C)c2=O)C(C)(C)c2ccccc21` the EC50 (Beta-galactosidase) was 39.9 µM (active) and the IC50 [18] was 27 µM (not active).

From ChEMBL document CHEMBL1201862, “PubChem BioAssay data set” (2004)
